Data published in the SangsterLogP compilation.

Experiment: method code SF, from DOI: 10.1016/j.ejps.2012.10.019, PMID: 23131797
Settings: pH 5.0

Compared with `O=C(NC1CCCC1)C1c2ccccc2Oc2ccccc21`, `CCOc1ccccc1OCC(=O)Nc1ccc2ccccc2c1` is higher in logD: 3.95 for the first, 4.73 for the second.

Going from `CCCCOc1ccc(C(=O)N(CCN2C(=O)c3ccccc3C2=O)c2cccc(OC)c2)cc1` to `CCOC(=O)C1=C(Nc2ccc(OC(=O)Nc3ccc(OC(F)(F)F)cc3)cc2)C(=O)N(C(C)(C)C)C1`, the logD rises from 5.35 to 6.72.

First: CC(C)(C)NC(=S)Nc1ccc(F)cc1
Second: Cc1ccc(NC(=O)CSc2nnc(Cc3ccccc3)o2)cc1Cl
The logD of the first is lower: 2.71 for the first, 4.85 for the second.

Compared with `Cc1ccccc1-c1noc(CCl)n1`, `CCCn1c(=O)c(Br)cn(-c2ccccc2C)c1=O` is lower in logD: 3.3 for the first, 2.82 for the second.

First: N#Cc1c(SCC(=O)OCc2ccccc2)nsc1SCC(=O)OCc1ccccc1
Second: Cc1cccc(C)c1NC(=O)CSc1nnnn1-c1ccc(OC(F)(F)F)cc1
The logD of the first is higher: 5.6 for the first, 4.82 for the second.

First: O=P(OCC(F)(F)F)(OCC(F)(F)F)N1CCOCC1
Second: CC1=CC(C(F)(F)F)(C(F)(F)F)C(C#N)=C(N)N1c1ccc(C(N)=O)cc1
The logD of the first is lower: 2.69 for the first, 4.41 for the second.

With `CSc1scc(-c2cccs2)c1C#N` the logD was 3.69.

Same assay, conditions: pH 7.3

`Cc1nc(-c2ccc(Cl)cc2)cs1` and `Cn1c(SCc2cc(F)cc(F)c2)nnc1-c1ccc2nonc2c1` are within 0.2 log units of each other in logD: 3.65 for the first, 3.68 for the second.

`CC1CCCC(C)N1C(=O)CSc1nnc(-c2ccco2)n1Cc1ccccc1` (stereo unspecified) showed a logD of 4.49.

Same assay, conditions: pH 10.0

Going from `COc1ccc(NC(=O)c2sc3sc(C(=O)Nc4ccc(OC)c(OC)c4)c(N)c3c2N)cc1OC` to `CN(C)S(=O)(=O)c1cccc(C(=O)NCCc2ccc(Cl)cc2Cl)c1`, the logD falls from 4.88 to 4.48.

Compared with `CC1CN(c2nc3ccccn3c(=O)c2C=C(C#N)C#N)CC(C)O1` (stereo unspecified), `Cc1ccc2c(C)nc(Nc3nc4c(c(=O)[nH]3)CCCC4)nc2c1` is higher in logD: 3.24 for the first, 3.92 for the second.

Same assay, conditions: pH 10.5

In the case of `Cc1nn(C)cc1-c1cc(C(F)(F)F)n2ncc(C(=O)N(C3CCCCC3)C3CCCCC3)c2n1`, the logD is reported as 5.81.
